Test results published in ChEMBL document CHEMBL4828719, “H2dpa derivatives containing pentadentate ligands: An acyclic adjuvant potentiates meropenem activity in vitro and in vivo against metallo-β-lactamase-producing Enterobacterales” (Eur J Med Chem, 2021).
In brackets after ≈: the same amount, converted by molar mass. Activity calls are given as the source filed them. The calls are words filed in the database; no cut-off is given here.

What was measured:
[1] = Non competitive inhibition of VIM-2 (unknown origin) assessed as inhibition of substrate hydrolysis by measuring decrease in Vmax using nitrocefin as substrate preincubated with enzyme for 5 mins followed by substrate addition by Lineweaver-Burk plot analysis
Escherichia coli [2] = assay: Antibiotic adjuvant activity against NDM-1 producing Escherichia coli DH5alpha assessed as potentiation of meropenem-induced antibacterial activity by measuring meropenem MIC at 16 ug/ml incubated for 16 to 20 hrs by checkerboard assay (reference value: 32 ug/ml); format: functional; conditions: DH5[alpha], dose 16 µg/ml, time 16-20 hrs
Escherichia coli [3] = assay: Antibiotic adjuvant activity against meropenem-treated VIM-1 producing Escherichia coli DH5 alpha assessed as inhibition of bacterial growth at 8 ug/ml incubated for 16 to 20 hrs in the presence of meropenem and 1 to 10 uM zinc sulfate by CLSI based microdilution method; format: functional, organism-based; conditions: dose 8.0 µg/ml, time 16-20 hrs
[4] = Acute toxicity in BALB/c mouse assessed as change in platelet count at 50 mg/kg, ip administered as single dose measured after 24 hrs; format: organism-based; conditions: in vivo
[5] = Zinc chelation-dependent inhibition of NDM-1 (unknown origin) expressed in Escherichia coli DH5 alpha using meropenem as substrate preincubated with enzyme for 5 mins followed by substrate addition in the presence of zinc sulfate
Escherichia coli [6] = assay: Antibiotic adjuvant activity against meropenem-treated IMP-4 producing Escherichia coli DH5 alpha assessed as bacterial growth at 8 ug/ml incubated for 16 to 20 hrs in the presence of meropenem by CLSI based microdilution method; format: functional; conditions: dose 8 µg/ml; time 16-20 hrs
[7] = Zinc chelation-dependent inhibition of VIM-2 (unknown origin) expressed in Escherichia coli BL21 (DE3) using nitrocefin as substrate preincubated with enzyme for 5 to 10 mins followed by substrate addition
Escherichia coli [8] = assay: Antibiotic adjuvant activity against meropenem-treated NDM-1 producing Escherichia coli DH5 alpha assessed as bacterial growth at 8 ug/ml incubated for 16 to 20 hrs in the presence of meropenem by CLSI based microdilution method; format: functional; conditions: dose 8 µg/ml; time 16-20 hrs
[9] = Toxicity in sheep RBC assessed as induction of hemolysis at 1024 microg/ml measured after 1 hr relative to control; format: tissue-based, Ovis aries, Erythrocyte; conditions: sheep red blood cells, at 1024 µg/mL, read-out: Activity
Escherichia coli [10] = assay: Antibiotic adjuvant activity against meropenem-treated IMP-4 producing Escherichia coli DH5 alpha assessed as inhibition of bacterial growth at 8 ug/ml incubated for 16 to 20 hrs in the presence of meropenem and 1 to 10 uM zinc sulfate by CLSI based microdilution method; format: functional, organism-based; conditions: dose 8.0 µg/ml, time 16-20 hrs
[11] = Acute toxicity in BALB/c mouse assessed as change in albumin level in serum at 50 mg/kg, ip administered as single dose measured after 24 hrs; format: organism-based; conditions: in vivo
Klebsiella pneumoniae [12] = assay: Antibiotic adjuvant activity against meropenem-treated NDM-producing carbapenem resistant Klebsiella pneumoniae infected in BALB/c mouse sepsis model assessed as complete liver lobule structure with radially arranged hepatic cords and visible central veins at 10 mg/kg, ip in the presence of meropenem observed for 2 days by HE staining based assay; format: functional, organism-based; conditions: time 2.0 day
Escherichia coli [13] = assay: Antibacterial activity against VIM-1 producing Escherichia coli DH5 alpha assessed as bacterial growth at 8 ug/ml incubated for 16 to 20 hrs by CLSI based microdilution method; format: functional; conditions: dose 8 µg/ml; time 16-20 hrs
[14] = Non competitive inhibition of NDM-1 (unknown origin) assessed as inhibition of substrate hydrolysis by measuring decrease in Vmax using meropenem as substrate preincubated with enzyme for 5 mins followed by substrate addition by Lineweaver-Burk plot analysis
Escherichia coli [15] = assay: Antibiotic adjuvant activity against meropenem-treated VIM-1 producing Escherichia coli DH5 alpha assessed as bacterial growth at 8 ug/ml incubated for 16 to 20 hrs in the presence of meropenem and 100 uM zinc sulfate by CLSI based microdilution method; format: functional; conditions: dose 8 µg/ml; time 16-20 hrs
[16] = Acute toxicity in BALB/c mouse assessed as change in WBC count at 50 mg/kg, ip administered as single dose measured after 24 hrs; format: organism-based; conditions: in vivo
Pseudomonas aeruginosa = assay: Antibacterial activity against MBL producing Pseudomonas aeruginosa isolates assessed as inhibition of bacterial growth at 64 ug/ml incubated for 16 to 20 hrs by CLSI based microdilution method; format: functional, organism-based; conditions: dose 64.0 µg/ml, time 16-20 hrs
Klebsiella pneumoniae [17] = assay: Antibacterial activity against MBL producing Klebsiella pneumoniae isolates assessed as inhibition of bacterial growth at 64 ug/ml incubated for 16 to 20 hrs by CLSI based microdilution method; format: functional, organism-based; conditions: dose 64.0 µg/ml, time 16-20 hrs
Klebsiella pneumoniae [18] = assay: Antibiotic adjuvant activity against meropenem-treated NDM-producing carbapenem resistant Klebsiella pneumoniae infected in BALB/c mouse sepsis model assessed as reduction of bacterial load in kidney at 10 mg/kg, ip in the presence of meropenem observed for 2 days; format: functional, organism-based; conditions: time 2.0 day
Escherichia coli [19] = assay: Antibiotic adjuvant activity against IMP-4 producing Escherichia coli DH5alpha assessed as potentiation of meropenem-induced antibacterial activity incubated for 16 to 20 hrs by agar disc diffusion assay; format: functional, organism-based; conditions: DH5[alpha], time 16-20 hrs
[20] = Non competitive inhibition of IMP-1 (unknown origin) assessed as inhibition of substrate hydrolysis by measuring decrease in Vmax using imipenem as substrate preincubated with enzyme for 5 mins followed by substrate addition by Lineweaver-Burk plot analysis
[21] = Acute toxicity in BALB/c mouse assessed as survival rate at 10 to 50 mg/kg, ip administered as single dose measured for 72 hrs; format: organism-based; conditions: in vivo, dose 10-50 mg/kg
Enterobacter hormaechei = assay: Antibacterial activity against MBL producing Enterobacter hormaechei isolates assessed as inhibition of bacterial growth at 64 ug/ml incubated for 16 to 20 hrs by CLSI based microdilution method; format: functional, organism-based; conditions: dose 64.0 µg/ml, time 16-20 hrs
[22] = Toxicity in sheep RBC assessed as induction of hemolysis measured after 1 hr; format: tissue-based, Ovis aries, Erythrocyte; conditions: sheep red blood cells
[23] = Acute toxicity in BALB/c mouse assessed as pathological changes in spleen at 50 mg/kg, ip administered as single dose measured after 24 hrs by hematoxylin and eosin staining based assay; format: organism-based; conditions: in vivo
[24] = Acute toxicity in BALB/c mouse assessed as change in urea level in serum at 50 mg/kg, ip administered as single dose measured after 24 hrs; format: organism-based; conditions: in vivo
Escherichia coli [25] = assay: Synergistic antibacterial activity against VIM-1 producing Escherichia coli DH5alpha assessed as fractional inhibitory concentration index incubated for 16 to 20 hrs in presence of meropenem by checkerboard assay; format: functional, DH5[alpha]; conditions: time 16-20 hrs
Escherichia coli [26] = assay: Antibacterial activity against MBL producing Escherichia coli isolates assessed as inhibition of bacterial growth at 64 ug/ml incubated for 16 to 20 hrs by CLSI based microdilution method; format: functional, organism-based; conditions: dose 64.0 µg/ml, time 16-20 hrs
Klebsiella pneumoniae [27] = assay: Antibiotic adjuvant activity against meropenem-treated NDM-producing carbapenem resistant Klebsiella pneumoniae infected in BALB/c mouse sepsis model assessed as reduction of bacterial load in liver at 10 mg/kg, ip in the presence of meropenem observed for 2 days; format: functional, organism-based; conditions: time 2.0 day
[28] = Zinc chelation-dependent inhibition of IMP-1 (unknown origin) expressed in Escherichia coli DH5 alpha using imipenem as substrate preincubated with enzyme for 5 mins followed by substrate addition in the presence of zinc sulfate
Escherichia coli [29] = assay: Antibacterial activity against IMP-4 producing Escherichia coli DH5alpha assessed as decrease in bacterial growth incubated for 16 to 20 hrs by CLSI based microdilution method; format: functional; conditions: DH5[alpha], time 16-20 hrs
Escherichia coli [30] = assay: Antibiotic adjuvant activity against meropenem-treated NDM-1 producing Escherichia coli DH5 alpha assessed as inhibition of bacterial growth at 8 ug/ml incubated for 16 to 20 hrs in the presence of meropenem and 1 to 10 uM zinc sulfate by CLSI based microdilution method; format: functional, organism-based; conditions: dose 8.0 µg/ml, time 16-20 hrs

Structure (SMILES) | Ki [1] | MIC (Escherichia coli [2]) | Activity (Escherichia coli [3]) | Activity [4] | Activity [5] | Activity (Escherichia coli [6]) | IC50 [7] | Activity (Escherichia coli [8]) | hemolysis at 1 h, 1024 microg/ml [9] | Activity (Escherichia coli [10]) | Activity [11] | Activity (Klebsiella pneumoniae [12]) | Activity (Escherichia coli [13]) | Ki [14] | Activity (Escherichia coli [15]) | Activity [16] | Activity (Pseudomonas aeruginosa) | Activity (Klebsiella pneumoniae [17]) | Activity (Klebsiella pneumoniae [18]) | Activity (Escherichia coli [19]) | other results
C[C@@H](C(=O)O)N(Cc1cccc(C(=O)O)n1)Cc1cccc(C(=O)O)n1 | 5830 nM | < 0.0312 µg/mL | Active | Non-Toxic | inactive | <10% | 1540 nM | <10% | < 7% | Active | Non-Toxic | Active | 95% | 1700 nM | 100% | Non-Toxic | inactive | inactive | Active | Active | Ki [20]: 1540 nM; survival at 72 h [21]: 100%; Activity (Enterobacter hormaechei): inactive; HC50 at 1 h [22]: > 1020 µg/mL; Activity [23]: Non-Toxic; Activity [24]: Non-Toxic; fractional inhibitory concentration index (FICI) (Escherichia coli [25]): 0.07; Activity (Escherichia coli [26]): inactive; Activity (Klebsiella pneumoniae [27]): Active; Activity [28]: inactive; MIC (Escherichia coli [29]): 128 µg/mL (≈ 356 µM); Activity (Escherichia coli [30]): Active
C[C@H](C(=O)O)N(Cc1cccc(C(=O)O)n1)Cc1cccc(C(=O)O)n1 | 6160 nM | < 0.0312 µg/mL | Active | Non-Toxic | inactive | <10% | 1560 nM | <10% | < 7% | Active | Non-Toxic | Active | 95% | 1590 nM | 100% | Non-Toxic | inactive | inactive | Active | Active | Ki [20]: 1570 nM; survival at 72 h [21]: 100%; Activity (Enterobacter hormaechei): inactive; HC50 at 1 h [22]: > 1020 µg/mL; Activity [23]: Non-Toxic; Activity [24]: Non-Toxic; fractional inhibitory concentration index (FICI) (Escherichia coli [25]): 0.07; Activity (Escherichia coli [26]): inactive; Activity (Klebsiella pneumoniae [27]): Active; Activity [28]: inactive; MIC (Escherichia coli [29]): 128 µg/mL (≈ 356 µM); Activity (Escherichia coli [30]): Active
